Experimental data from patent US7186831B2, “5-halo-2-alkyl[1,2,4]triazolo[1,5-a]pyrimidin-7-amines” (priority 2001, dated 2007).

Test: log P by HPLC
Format: physicochemical
Details: EEC directive 79/831 Annex V. A8 by HPLC (gradient method, acetonitrile/0.1% aqueous phosphoric acid)
For `Cc1nc2nc(Cl)c(-c3c(F)cccc3F)c(NOCc3cccc(C(F)(F)F)c3)n2n1` [compound 433], the logP was 3.41.
Compound `Fc1ccc(-c2c(Cl)nc3nc(C4CC4)nn3c2N2CCC(C(F)(F)F)CC2)c(F)c1` [compound 515] has a logP of 4.07.
`Cc1nc2nc(Cl)c(-c3ccc(F)cc3F)c(N3CCC(O)CC3)n2n1` [compound 282] showed a logP of 1.9.
In the case of `Fc1ccc(-c2c(Cl)nc3nc(C4CC4)nn3c2N2CCC(F)CC2)c(F)c1` [compound 513], the logP is reported as 3.45.
Compound `Fc1cccc(Cl)c1-c1c(Cl)nc2nc(C3CC3)nn2c1N1CCCCO1` [compound 486] has a logP of 3.74.
`Cc1nc2nc(Cl)c(-c3c(F)cccc3Cl)c(N3CCC(C(F)(F)F)CC3)n2n1` [compound 261] gave a logP of 3.72.
For `Cc1nc2nc(Cl)c(-c3ccc(F)cc3F)c(Nc3ccc(F)cc3)n2n1` [compound 299], the logP was 2.7.
For `CCC(C)Nc1c(-c2ccccc2Cl)c(Cl)nc2nc(C3CC3)nn12` (stereo not drawn) [compound 494], the logP was 3.76.
For `Cc1nc2nc(Cl)c(-c3c(F)cccc3Cl)c(N(C)Cc3ccco3)n2n1` [compound 274], the logP was 3.26.
Work on `CC1CCCCN1c1c(-c2ccccc2Cl)c(Cl)nc2nc(C3CC3)nn12` (stereo not drawn) [compound 499] yielded a logP of 4.61.
In the case of `Cc1nc2nc(Cl)c(-c3ccccc3F)c(N3CCCCC3)n2n1` [compound 384], the logP is reported as 3.19.
For `Cc1nc2nc(Cl)c(-c3ccc(F)cc3F)c(N3CCc4ccccc4C3)n2n1` [compound 300], the logP was 3.28.
With `Cc1nc2nc(Cl)c(-c3c(F)cccc3F)c(N3CCCC3C)n2n1` (stereo not drawn) [compound 304] the logP was 3.02.
`CCOC(=O)CN(C)c1c(-c2c(F)cccc2Cl)c(Cl)nc2nc(C)nn12` [compound 272] showed a logP of 2.48.
`Cc1nc2nc(Cl)c(-c3c(F)cccc3Cl)c(N3CCCC(C)C3)n2n1` (stereo not drawn) [compound 302] showed a logP of 3.99.
Compound `CC(=O)NC1CCN(c2c(-c3c(F)cccc3F)c(Cl)nc3nc(C)nn23)C1` (stereo not drawn) [compound 305] has a logP of 1.64.
In the case of `CC(Nc1c(-c2ccc(F)cc2Cl)c(Cl)nc2nc(C3CC3)nn12)C(F)(F)F` (racemic) [compound 505], the logP is reported as 3.75.
`C[C@H](Nc1c(-c2ccc(F)cc2F)c(Cl)nc2nc(C3CC3)nn12)C(F)(F)F` (single isomer, unassigned) [compound 489] gave a logP of 3.51.
`FC(F)(F)CNc1c(-c2ccccc2Cl)c(Cl)nc2nc(C3CC3)nn12` [compound 500] showed a logP of 3.22.
`Cc1nc2nc(Cl)c(-c3c(F)cccc3F)c(N3CCC(C)(C)CC3)n2n1` [compound 315] showed a logP of 3.91.
`CCC(C)ONc1c(-c2ccccc2F)c(Cl)nc2nc(C)nn12` (stereo not drawn) [compound 370] gave a logP of 2.87.
`Clc1ccccc1-c1c(Cl)nc2nc(C3CC3)nn2c1N1CCCCN1` [compound 488] showed a logP of 3.39.
`Cc1nc2nc(Cl)c(-c3ccc(F)cc3F)c(N3CCC(C)(C)CC3)n2n1` [compound 288] gave a logP of 4.01.
Compound `Cc1nc2nc(Cl)c(-c3c(F)cc(F)cc3F)c(NC(C)C3CC3)n2n1` (stereo not drawn) [compound 379] has a logP of 3.09.

Same assay, conditions: HPLC
For `Fc1cc(F)c(-c2c(Cl)nc3nc(C(F)(F)F)nn3c2N2CCC(C(F)(F)F)CC2)c(F)c1` [Example 1], the chromatographic logP was 4.43.

Same assay, conditions: HPLC, gradient method, acetonitrile/0.1% aqueous phosphoric acid; EEC directive 79/831 Annex V. A8
For `CCCNc1c(-c2c(F)cc(F)cc2F)c(Cl)nc2nc(C)nn12` [compound 61], the logP was 2.75.
`CCNc1c(-c2ccc(F)cc2F)c(Cl)nc2nc(C3CC3)nn12` [compound 712] gave a logP of 2.97.
`Fc1cccc(Cl)c1-c1c(Cl)nc2nc(C3CC3)nn2c1N1CCCC1` [compound 704] showed a logP of 3.55.
With `CC1=CCCN(c2c(-c3c(F)cc(F)cc3F)c(Cl)nc3nc(C)nn23)C1` [compound 85] the logP was 3.57.
Work on `C=CCN(C)c1c(-c2ccc(F)cc2F)c(Cl)nc2nc(C3CC3)nn12` [compound 664] yielded a logP of 3.61.
For `C=C(C)CN(CC)c1c(-c2ccccc2Cl)c(Cl)nc2nc(C)nn12` [compound 133], the logP was 3.9.
`Cc1nc2nc(Cl)c(-c3c(F)cccc3F)c(N3OCCC3C)n2n1` (stereo not drawn) [compound 578] showed a logP of 2.61.
`CC(C)NNc1c(-c2c(F)cc(F)cc2F)c(Cl)nc2nc(C(F)(F)F)nn12` [compound 84] gave a logP of 3.68.
`CC1CCCCN1c1c(-c2ccc(F)cc2Cl)c(Cl)nc2nc(C3CC3)nn12` (stereo not drawn) [compound 617] showed a logP of 4.72.
In the case of `CC1CCN(c2c(-c3c(F)cccc3Cl)c(Cl)nc3nc(C4CC4)nn23)CC1` [compound 706], the logP is reported as 4.59.
`Fc1ccc(-c2c(Cl)nc3nc(C4CC4)nn3c2N2CCOCC2)c(Cl)c1` [compound 636] showed a logP of 3.18.
With `FC(F)CNc1c(-c2ccc(Cl)cc2Cl)c(Cl)nc2nc(C3CC3)nn12` [compound 741] the logP was 3.42.
Compound `CCN(CC)c1c(-c2ccccc2Cl)c(Cl)nc2nc(C)nn12` [compound 242] has a logP of 3.24.
`CCNc1c(-c2c(F)cc(F)cc2F)c(Cl)nc2nc(C)nn12` [compound 87] gave a logP of 2.44.
`C#CCN(C)c1c(-c2ccc(F)cc2F)c(Cl)nc2nc(C(F)(F)F)nn12` [compound 539] showed a logP of 3.65.
In the case of `COCCNc1c(-c2ccc(F)cc2Cl)c(Cl)nc2nc(C3CC3)nn12` [compound 616], the logP is reported as 3.07.
Work on `CCC(C)Nc1c(-c2c(F)cccc2F)c(Cl)nc2nc(C)nn12` (stereo not drawn) [compound 187] yielded a logP of 2.82.
`Cc1nc2nc(Cl)c(-c3ccc(F)c(Cl)c3)c(N(N)CC(C)C)n2n1` [compound 131] showed a logP of 3.31.
In the case of `Cc1nc2nc(Cl)c(-c3c(F)cccc3F)c(NOC(C)C)n2n1` [compound 144], the logP is reported as 2.46.
Work on `Cc1nc2nc(Cl)c(-c3c(F)cc(F)cc3F)c(N3CC=CCC3)n2n1` [compound 83] yielded a logP of 3.2.
For `Fc1ccc(-c2c(Cl)nc3nc(C4CC4)nn3c2N2CCC3(CC2)OCCO3)c(F)c1` [compound 609], the logP was 3.22.
`C=C(C)CNc1c(-c2c(F)cc(F)cc2F)c(Cl)nc2nc(C(F)(F)F)nn12` [compound 22] showed a logP of 3.82.
With `Cc1nc2nc(Cl)c(-c3c(F)cccc3Cl)c(NCC#N)n2n1` [compound 253] the logP was 2.11.
Work on `CN(C)C1CCN(c2c(-c3ccc(F)cc3F)c(Cl)nc3nc(C4CC4)nn23)C1` (stereo not drawn) [compound 605] yielded a logP of 1.46.
`CC(C)CC(C)Nc1c(-c2ccc(F)cc2Cl)c(Cl)nc2nc(C3CC3)nn12` (stereo not drawn) [compound 637] showed a logP of 4.61.
In the case of `Cc1nc2nc(Cl)c(-c3c(F)cc(F)cc3F)c(NC(C)CO)n2n1` (stereo not drawn) [compound 122], the logP is reported as 1.93.
`CC(Nc1c(-c2ccc(Cl)cc2Cl)c(Cl)nc2nc(C3CC3)nn12)C(F)(F)F` (single isomer, unassigned) [compound 711] gave a logP of 4.19.
Work on `C=C(C)CN(C)c1c(-c2c(F)cccc2F)c(Cl)nc2nc(C3CC3)nn12` [compound 677] yielded a logP of 3.98.
With `CC(C)(C)CNc1c(-c2ccc(F)cc2Cl)c(Cl)nc2nc(C3CC3)nn12` [compound 622] the logP was 4.37.
Work on `COCCNc1c(-c2ccccc2Cl)c(Cl)nc2nc(C)nn12` [compound 236] yielded a logP of 2.3.
With `Cc1nc2nc(Cl)c(-c3c(F)cc(F)cc3F)c(NC(C)C)n2n1` [compound 26] the logP was 2.71.
Compound `Cc1nc2nc(Cl)c(-c3c(F)cccc3Cl)c(NCC(C)(C)C)n2n1` [compound 249] has a logP of 3.59.
With `CC(C)=NN(CC(C)C)c1c(-c2c(F)cccc2F)c(Cl)nc2nc(C3CC3)nn12` [compound 787] the logP was 4.21.
Work on `Cc1nc2nc(Cl)c(-c3c(F)cccc3Cl)c(NC(C)C)n2n1` [compound 256] yielded a logP of 2.77.
For `Cc1cccc(Nc2c(-c3ccc(F)cc3F)c(Cl)nc3nc(C4CC4)nn23)c1` [compound 737], the logP was 3.61.
